These results are taken from ChEMBL document CHEMBL4049447 (J Med Chem, 2017).

Data set [1] in a line: Apparent permeability across basolateral to apical side in human Caco2 cells assessed as drug recovery at 10 uM measured up to 2 hrs by ESI-LC/MS/MS analysis. The note with it: Caco-2, read-out: Drug recovery. Format: ADME, cell-based. For orientation: Passage across Caco-2 layers is used to estimate intestinal permeability.
Data set [2] in a line: Apparent permeability across apical to basolateral side in human Caco2 cells assessed as drug recovery at 10 uM measured up to 2 hrs by ESI-LC/MS/MS analysis. The class given is ADME, cell-based. Conditions: Caco-2, read-out: Drug recovery.

Take `Nc1ccc2ccc(CCNCCc3cccc(Cl)c3)cc2n1`: the recovery at 2 h, 10 µM was determined as 103% in data set [1] and 63% in data set [2].
